Patent publication US20230116602A1, “MCL1 INHIBITORS AND USES THEREOF” (California Institute of Technology, priority 2019, published 2023)
Like-named read-outs stand apart in the source and are kept apart here.

Columns and labels:
MCL1 = MCL1 (Homo sapiens, UniProt Q07820); assay: MCL1 affinity assay (competition binding, qPCR readout); details: recombinant MCL1, 11-point 3-fold dilution series
Procedure, shortened: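 Kds derived from an 11-point 3-fold compound series measured by qPCR of protein eluted from ligand beads. Recombinant, DNA-tagged protein from E. coli or HEK-293 was mixed with compound and peptide-liganded beads in SeaBlock/PBS/Tween/DTT buffer for 1 hour at room temperature (0.9% DMSO).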

BCL2 = BCL2 (Homo sapiens, UniProt P10415); assay: BCL2 affinity assay (competition binding, qPCR readout); details: recombinant BCL2, 11-point 3-fold dilution series
BCL2, sequence (P10415 whole entry): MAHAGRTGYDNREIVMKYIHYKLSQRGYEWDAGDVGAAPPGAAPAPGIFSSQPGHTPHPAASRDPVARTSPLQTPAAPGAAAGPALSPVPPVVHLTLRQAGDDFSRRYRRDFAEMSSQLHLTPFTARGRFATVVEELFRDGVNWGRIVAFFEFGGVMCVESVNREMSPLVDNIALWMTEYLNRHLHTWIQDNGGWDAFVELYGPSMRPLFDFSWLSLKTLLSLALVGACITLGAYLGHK
Experimental: (§1) Recombinant MCL1, BCL2 and BCXL proteins were prepared in either an E. coli host derived from the BL21 strain or in HEK-293 cells. The recombinant proteins were subsequently tagged with DNA for qPCR detection. Streptavidin-coated magnetic beads were treated for 30 minutes at room temperature with the respective biotinylated peptide ligands for each recombinant protein to generate affinity resins for the assays. The liganded beads were blocked with excess biotin and washed with blocking buffer (SeaBlock (Pierce), 1% BSA, 0.05% Tween 20, 1 mM DTT) to remove unbound ligand and to reduce nonspecific binding. Binding reactions were assembled by combining recombinant protein, liganded affinity beads, and test compounds in 1× binding buffer (20% SeaBlock, 0.17×PBS, 0.05% Tween 20, 6 mM DTT). Test compounds were prepared as 111X stocks in 100% DMSO. The compounds were then diluted directly into the assays such that the final concentration of DMSO was 0.9%. The assay plates were incubated at room temperature with shaking for 1 hour and the affinity beads were washed with wash buffer (1×PBS, 0.05% Tween 20). The beads were then re-suspended in elution buffer (1×PBS, 0.05% Tween 20, 0.5 μM non-biotinylated affinity ligand) and incubated at room temperature with shaking for 30 minutes. The recombinant protein concentration in the eluates was measured by qPCR. Kds were determined using an 11-point 3-fold compound dilution series with three DMSO control points.

BCLXL = BCLXL (Homo sapiens, UniProt Q07817); assay: BCLXL affinity assay (competition binding, qPCR readout); details: recombinant BCLXL, 11-point 3-fold dilution series
BCLXL, sequence (Q07817 whole entry): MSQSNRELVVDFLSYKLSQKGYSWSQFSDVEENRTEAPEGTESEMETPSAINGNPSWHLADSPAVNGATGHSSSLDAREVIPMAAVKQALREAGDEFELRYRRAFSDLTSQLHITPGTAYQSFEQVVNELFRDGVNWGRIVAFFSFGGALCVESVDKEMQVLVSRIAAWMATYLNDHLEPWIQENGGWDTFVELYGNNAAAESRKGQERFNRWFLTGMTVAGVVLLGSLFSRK
Experimental: as §1

[1] = test system: drug-sensitive cell lines of Table 3; assay: Cell line growth retardation assay, sensitive cohort; format: cell-based, Human; details: for IC50: arithmetic mean of IC50s over the sensitive cohort of Table 3, 6 days growth, read-out: AvgSen IC50; for Fold Diff: average IC50 of resistant cohort divided by average IC50 of sensitive cohort
Procedure, shortened: (§2)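 Over 6 days of treatment at six concentrations (0.0032–10 μM), given after a 24 h post-seeding rest, population doublings were counted by imaging against a pre-dose baseline and compared with vehicle. Per-line IC50 values came from dose-response fits; cohort averages used arithmetic means, with sensitive/resistant grouping based on response to reference MCL1 inhibitors.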

[2] = test system: drug-resistant cell lines of Table 3; assay: Cell line growth retardation assay, resistant cohort; format: cell-based, Human; details: arithmetic mean of IC50s over the resistant cohort of Table 3, 6 days growth, read-out: AvgRes IC50
Procedure, shortened: as §2

MCL1, sequence (Q07820 whole entry): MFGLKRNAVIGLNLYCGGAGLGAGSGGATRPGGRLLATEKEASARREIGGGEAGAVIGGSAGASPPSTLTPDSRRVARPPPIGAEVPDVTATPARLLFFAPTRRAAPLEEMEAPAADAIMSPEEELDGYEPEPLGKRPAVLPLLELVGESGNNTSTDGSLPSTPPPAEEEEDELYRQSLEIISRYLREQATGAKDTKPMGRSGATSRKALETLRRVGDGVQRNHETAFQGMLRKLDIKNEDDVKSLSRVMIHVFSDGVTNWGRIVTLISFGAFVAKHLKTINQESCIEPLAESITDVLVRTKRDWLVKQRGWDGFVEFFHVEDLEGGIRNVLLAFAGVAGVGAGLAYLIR

Kd (MCL1)	Kd (BCL2)	Kd (BCLXL)	Compound	IC50 ([1]; Homo sapiens, 144 h)	Fold Diff [1]	IC50 ([2]; Homo sapiens, 144 h)	IC50 [1]	IC50 [2]
101 to 500 nM	> 1500 nM	> 1500 nM	Cc1c(-c2c(-c3cccc(F)c3)ncc3snc(O[C@H](Cc4ccccc4OCc4ccnn4CC(F)(F)F)C(=O)O)c23)ccc(OCCN2CCN(C)CC2)c1Cl (atropisomer, axis not shown) [Compound 26]	≤ 1000 nM	+ (“+” represents a fold difference of 10 or more)	> 5000 nM		
> 1500 nM	> 1500 nM	> 1500 nM	Cc1c(-c2c(-c3cccc4ccccc34)ncc3snc(O[C@H](Cc4ccccc4OCc4ccnn4CC(F)(F)F)C(=O)O)c23)ccc(OCCN2CCN(C)CC2)c1Cl (atropisomer, axis not shown) [Compound 7]	> 5000 nM	− (“−” represents a fold difference less than 10)	> 5000 nM		
501 to 1500 nM	> 1500 nM	> 1500 nM	Cc1c(-c2c(-c3cn(C)c4ccccc34)ncc3snc(O[C@H](Cc4ccccc4OCc4ccnn4CC(F)(F)F)C(=O)O)c23)ccc(OCCN2CCN(C)CC2)c1Cl (atropisomer, axis not shown) [Compound 20]	> 5000 nM	− (“−” represents a fold difference less than 10)	> 5000 nM		
≤ 100 nM	> 1500 nM	> 1500 nM	COc1ccccc1-c1nccc(COc2ccccc2C[C@@H](Oc2nsc3cnc(-c4ccccn4)c(-c4ccc(OCCN5CCN(C)CC5)c(Cl)c4C)c23)C(=O)O)n1 (atropisomer, axis not shown) [Compound 53]	> 5000 nM	− (“−” represents a fold difference less than 10)	> 5000 nM		
501 to 1500 nM	> 1500 nM	> 1500 nM	Cc1c(-c2c(Cl)ncc3snc(O[C@H](Cc4ccccc4OCc4ccnn4CC(F)(F)F)C(=O)O)c23)ccc(OCCN2CCN(C)CC2)c1Cl (single isomer, unassigned) [Compound 4]		− (“−” represents a fold difference less than 10)		> 5000 nM	> 5000 nM
101 to 500 nM	> 1500 nM	> 1500 nM	Cc1c(-c2c(-c3ccc(F)c4ccoc34)ncc3snc(O[C@H](Cc4ccccc4OCc4ccnn4CC(F)(F)F)C(=O)O)c23)ccc(OCCN2CCN(C)CC2)c1Cl (atropisomer, axis not shown) [Compound 14]	1000 to 5000 nM	− (“−” represents a fold difference less than 10)	> 5000 nM		
101 to 500 nM	> 1500 nM	> 1500 nM	Cc1c(-c2c(-c3cccc4ccoc34)ncc3snc(O[C@H](Cc4ccccc4OCc4ccnn4CC(F)(F)F)C(=O)O)c23)ccc(OCCN2CCN(C)CC2)c1Cl (atropisomer, axis not shown) [Compound 21]	1000 to 5000 nM	− (“−” represents a fold difference less than 10)	> 5000 nM		
> 1500 nM	> 1500 nM	> 1500 nM	Cc1c(-c2c(-c3cccc4c3sc3ccccc34)ncc3snc(O[C@H](Cc4ccccc4OCc4ccnn4CC(F)(F)F)C(=O)O)c23)ccc(OCCN2CCN(C)CC2)c1Cl (atropisomer, axis not shown) [Compound 9]	> 5000 nM	− (“−” represents a fold difference less than 10)	> 5000 nM		
501 to 1500 nM	501 to 1500 nM	> 1500 nM	Cc1c(-c2c(-c3cccc4c3ccn4C)ncc3snc(O[C@H](Cc4ccccc4OCc4ccnn4CC(F)(F)F)C(=O)O)c23)ccc(OCCN2CCN(C)CC2)c1Cl (atropisomer, axis not shown) [Compound 15]	> 5000 nM	− (“−” represents a fold difference less than 10)	> 5000 nM		
501 to 1500 nM	> 1500 nM	> 1500 nM	Cc1c(-c2c(-c3cccc(C(F)(F)F)c3)ncc3snc(O[C@H](Cc4ccccc4OCc4ccnn4CC(F)(F)F)C(=O)O)c23)ccc(OCCN2CCN(C)CC2)c1Cl (atropisomer, axis not shown) [Compound 22]	1000 to 5000 nM	− (“−” represents a fold difference less than 10)	> 5000 nM		
101 to 500 nM	> 1500 nM	> 1500 nM	COc1cc(-c2nccc(COc3ccccc3C[C@@H](Oc3nsc4cnc(-c5cccc(F)c5)c(-c5ccc(OCCN6CCN(C)CC6)c(Cl)c5C)c34)C(=O)O)n2)ccn1 (atropisomer, axis not shown) [Compound 71]	≤ 1000 nM	+ (“+” represents a fold difference of 10 or more)	> 5000 nM		
≤ 100 nM	> 1500 nM	> 1500 nM	COc1ccccc1-c1nccc(COc2ccccc2C[C@@H](Oc2nsc3cnc(-c4ccc(F)cc4)c(-c4ccc(OCCN5CCN(C)CC5)c(Cl)c4C)c23)C(=O)O)n1 [Compound 40]	≤ 1000 nM	+ (“+” represents a fold difference of 10 or more)	> 5000 nM		
501 to 1500 nM	> 1500 nM	> 1500 nM	Cc1c(-c2c(-c3cccc(F)c3)ncc3snc(O[C@H](Cc4ccccc4)C(=O)O)c23)ccc(OCCN2CCN(C)CC2)c1Cl (atropisomer, axis not shown) [Compound 92]	1000 to 5000 nM	− (“−” represents a fold difference less than 10)	> 5000 nM		
≤ 100 nM	> 1500 nM	> 1500 nM	COc1cccc(-c2ncc3snc(O[C@H](Cc4ccccc4OCc4ccnc(-c5ccccc5OC)n4)C(=O)O)c3c2-c2ccc(O)c(Cl)c2C)c1 (atropisomer, axis not shown) [Compound 41]	1000 to 5000 nM	− (“−” represents a fold difference less than 10)	> 5000 nM		
501 to 1500 nM	> 1500 nM	> 1500 nM	Cc1cc2cccc(-c3ncc4snc(O[C@H](Cc5ccccc5OCc5ccnn5CC(F)(F)F)C(=O)O)c4c3-c3ccc(OCCN4CCN(C)CC4)c(Cl)c3C)c2[nH]1 (atropisomer, axis not shown) [Compound 17]	> 5000 nM	− (“−” represents a fold difference less than 10)	> 5000 nM		
≤ 100 nM	> 1500 nM	> 1500 nM	COc1cccc(-c2ncc3snc(O[C@H](Cc4ccccc4OCc4ccnc(-c5ccccc5OC)n4)C(=O)O)c3c2-c2ccc(OCCN3CCCCC3)c(Cl)c2C)c1 (atropisomer, axis not shown) [Compound 43]	1000 to 5000 nM	− (“−” represents a fold difference less than 10)	> 5000 nM		
> 1500 nM	> 1500 nM	> 1500 nM	Cc1c(-c2c(-c3csc4ccccc34)ncc3snc(O[C@H](Cc4ccccc4OCc4ccnn4CC(F)(F)F)C(=O)O)c23)ccc(OCCN2CCN(C)CC2)c1Cl (atropisomer, axis not shown) [Compound 19]	1000 to 5000 nM	− (“−” represents a fold difference less than 10)	> 5000 nM		
501 to 1500 nM	> 1500 nM	> 1500 nM	Cc1c(-c2c(-c3ccc(F)s3)ncc3snc(O[C@H](Cc4ccccc4OCc4ccnn4CC(F)(F)F)C(=O)O)c23)ccc(OCCN2CCN(C)CC2)c1Cl (single isomer, unassigned) [Compound 2]		− (“−” represents a fold difference less than 10)		1000 to 5000 nM	> 5000 nM
≤ 100 nM	> 1500 nM	> 1500 nM	COc1ccccc1-c1nccc(COc2ccccc2C[C@@H](Oc2nsc3cnc(C4=CCOCC4)c(-c4ccc(OCCN5CCN(C)CC5)c(Cl)c4C)c23)C(=O)O)n1 (atropisomer, axis not shown) [Compound 54]	1000 to 5000 nM	− (“−” represents a fold difference less than 10)	> 5000 nM		
> 1500 nM	> 1500 nM	> 1500 nM	Cc1c(-c2c(-c3ccc(F)s3)ncc3snc(O[C@H](Cc4ccccc4OCc4ccnn4CC(F)(F)F)C(=O)O)c23)ccc(OCCN2CCN(C)CC2)c1Cl (single isomer, unassigned) [Compound 1]		− (“−” represents a fold difference less than 10)	> 5000 nM	> 5000 nM	
